The source of these data is patent publication US20250098673A1, “COMPOSITIONS, MEANS AND METHODS FOR A NOVEL INSECT REPELLENT” (priority 2019, published 2025).

Data set [1] deals with Whitefly (Bemisia tabaci). The data set is described as follows: Study 1: pest control experiment in cauliflower compared to Mospilan. The format is in vivo. As to the method:
Whitefly (Bemisia tabaci), is a major pest, in many crops around the world. These pests are carriers of several virus diseases and are damaging the leaves and fruit with scratches and punch-and-suck activity. Furthermore, in cauliflower, excreting honeydew on the leaves and fruit, causes to mold development, which can disqualify the products for the market.
DHA was sprayed in two doses on cauliflower, for checking the effect on Whiteflies. These treatments were tested vs. a standard treatment (Mospilan) and a control treatment (not spraying): • DHA, 2.5% (aqueous solution) • DHA, 5% (aqueous solution) • Mospilan (Acetamiprid 200 g/L), 500 ml per hectare • Control (water spraying)
The experiment was implemented with 4 replicates for each treatment (randomly spread). Each replicate was 12 m long and 2 m width. Spraying volume was 40 L/Dunam. The solution for spraying was in a volume of 4 L.
Counting and statistics: Counting Whiteflies and Thrips was made on 20 leaves, selected randomly in each replicate. Variance analysis was made by Tukey-Kramer (α=0.05). Counting was performed every 7 days.

For another data set, the system named is Culex quinquefasciatus. In words: Arm-in-cage mosquito repellency test on human subjects (Protection Time). The format is in vivo. Particulars: mean of 5 subjects; Sano data obtained at a different time (historical comparison). As to the method: In an embodiment of this invention, the insect repellent effect of a 20% DHA solution was studied. These studies were carried out at Poseidon Sciences Insect Control Laboratory (Miagao, Iloilo, Philippines), a breeding facility for C. quinquefasciatus, for research and development. The insect repellency of a DHA solution, comprising 20% DHA dissolved in a 30% ethanol aqueous solution, was compared to that of a Placebo solution, comprising 30% ethanol in water, as a negative control solution. As a positive control, the repellency of DHA was also compared to that of a commercial Sano insect repellent, a plant based repellent, using a composition of 20% of citrepel 75 dissolved in water. The placebo and the 20% DHA solution were kept in a refrigerator until the day of use. The samples were removed from the refrigerator and kept at room temperature for 3 hours before the tests were undertaken.
The above-mentioned solutions were then tested on a total of 10 subjects (age 19 to 44 comprising a total of 6 women and 4 men), all in good health. Each subject had signed an Informed Consent Form. This study had been approved by Poseidon Sciences IRB (Institutional Review Board). […]
Following application of the tested solution to the arm of the subject, testing was carried out as follows: a research scientist recorded the time of insertion of the arm into the cage and observed mosquito landing. […]

For data set [2] the following is noted: cited from earlier work.

SMILES strings stand for the structures.

As for `O=C(CO)CO` [DHA, Dihydroxyacetone], in data set [1] (adults, significant), the “reduction of mature Whitefly compared to control group” value is reported as approximately 65%. Moreover, the “reduction of young stage Whitefly (trend)” value in data set [1] (young stage, trend) is given as approximately 40%. Further, the “Protection Time, Mean” value with Culex quinquefasciatus was 45 min. In addition, in data set [2] (SCCS report 2010), the carcinogenicity result is recorded as “non-carcinogenic”, the irritancy entry is reported as “non-irritant” and the “skin sensitization or photo sensitization” value is listed as “did not cause skin sensitization or photo sensitization effects”. Further, the systemic absorption entry in data set [2] (application to skin) is “not systemically absorbed”. The “safety of DHA sprays applied to skin” value in data set [2] (concentrations of up to 10%, SCCS report 2010) was “safe to use”.
